{"source": "patent US12246082B2", "about": "“Efficient sunscreen compositions with diethylamino hydroxybenzoyl hexyl benzoate and butyl methoxydibenzoylmethane free of octocrylene” (BASF SE, priority 2019, dated 2025)", "key": {"[1]": {"conditions": "stated in the description; cited from earlier work"}, "[2]": {"experiment": "Measurement of interfacial tension (polarity index) of emollients", "format": "physicochemical", "conditions": "Tensimat Densimat TD2000", "excerpt": "The term “polarity index” refers to non-polar or polar oils. Non-polar oils are mainly based on hydrocarbons and lack an electronegative element, such as oxygen. In contrast, polar oils contain heteroatoms that differ in electronegativity, which results in a dipole moment. However, such oils are still insoluble in water, i.e. hydrophob. The polarity index can be determined by measuring the interfacial tension between the respective oil and water.\nInterfacial tension of the respective emollients as listed below was measured using a Tensimat Densimat TD2000."}, "[3]": {"experiment": "Solubility measurements of UV filter in emollients", "format": "physicochemical", "conditions": "25° C., seven days", "description": "The vial is placed in a thermostated water bath (25° C.) and the blend is stirred for seven days. If the tested UV-filter is fully soluble, additional filter is added until precipitation is observed. After seven days, the sample is centrifuged for 30 minutes at 13000 rpm. If the supernatant is turbid, it is filtered through a 0.2 μm non steril Membrex 25 PET filter."}}, "note": "Where a name gives a salt, the structure may show the parent alone.", "data": [{"smiles": "COc1ccc(C(=O)CC(=O)c2ccc(C(C)(C)C)cc2)cc1", "note": "[BMDBM, 1-(4-(1,1-dimethylethyl)phenyl)-3-(4-methoxyphenyl)propane-1,3-dione]", "values": [{"measurement": "absorption maximum", "setting": "[1]", "result": 357, "unit": "nm"}]}, {"smiles": "CC(C)OC(=O)CCCCC(=O)OC(C)C", "note": "[diisopropyl adipate]", "values": [{"measurement": "polarity index", "setting": "[2]", "result": 12, "unit": "mN/m"}]}, {"smiles": "CCCCCCCCCCC(CO)CCCCCCCC", "note": "(centres unmarked) [octyldodecanol]", "values": [{"measurement": "polarity index", "setting": "[2]", "result": 25, "unit": "mN/m"}]}, {"smiles": "CCCCOC(=O)CCCCC(=O)OCCCC", "note": "[dibutyl adipate]", "values": [{"measurement": "polarity index", "setting": "[2]", "result": 14, "unit": "mN/m"}]}, {"smiles": "O=C(OCCc1ccccc1)c1ccccc1", "note": "[phenethyl benzoate]", "values": [{"measurement": "polarity index", "setting": "[2]", "result": 19, "unit": "mN/m"}]}, {"smiles": "CCCCC(CC)COC(=O)/C=C/c1ccc(OC)cc1", "note": "(centres unmarked) [ethylhexyl methoxy cinnamate, 2-Ethylhexyl-(2E)-3-(4-methoxyphenyl)acrylate]", "values": [{"measurement": "absorption maximum", "setting": "[1]", "result": 310, "unit": "nm"}]}, {"smiles": "CC(C)OC(=O)CCCCCCCCC(=O)OC(C)C", "note": "[diisopropyl sebacate]", "values": [{"measurement": "polarity index", "setting": "[2]", "result": 19, "unit": "mN/m"}]}, {"smiles": "CCOC(=O)CC(O)(CC(=O)OCC)C(=O)OCC", "note": "[triethyl citrate]", "values": [{"measurement": "polarity index", "setting": "[2]", "result": 7, "unit": "mN/m"}]}, {"smiles": "CCCCC(CC)COC(=O)c1ccc(Nc2nc(Nc3ccc(C(=O)NC(C)(C)C)cc3)nc(Nc3ccc(C(=O)OCC(CC)CCCC)cc3)n2)cc1", "note": "(centres unmarked) [diethylhexyl-butamidotriazone, 4,4′-[[6-[[4-[[(1,1-dimethylethyl)amino]carbonyl]phenyl]amino]-1,3,5-triazin-2,4-diyl]diimino]bis-benzoic acid-bis(2-ethylhexyl)ester]", "values": [{"measurement": "absorption maximum", "setting": "[1]", "result": 310, "unit": "nm"}]}, {"smiles": "CCCCOC(=O)CC(O)(CC(=O)OCCCC)C(=O)OCCCC", "note": "[tributyl citrate]", "values": [{"measurement": "polarity index", "setting": "[2]", "result": 10, "unit": "mN/m"}]}, {"smiles": "CCCCCCOC(=O)c1ccccc1C(=O)c1ccc(N(CC)CC)cc1O", "note": "[DHHB, hexyl 2-[4-(diethylamino)-2-hydroxybenzoyl]benzoate]", "values": [{"measurement": "solubility", "setting": "[3]; in C12-15 alkyl benzoate", "result": 22, "unit": "%"}, {"measurement": "solubility", "setting": "[3]; in butylene glycol dicaprylate/dicaprate", "result": 23, "unit": "%"}, {"measurement": "solubility", "setting": "[3]; in caprylic capric triglyceride", "result": 14, "unit": "%"}, {"measurement": "solubility", "setting": "[3]; in cyclomethicone", "result": "<1", "unit": "%"}, {"measurement": "solubility", "setting": "[3]; in dibutyl adipate", "result": 31, "unit": "%"}, {"measurement": "solubility", "setting": "[3]; in diisopropyl adipate", "result": 21, "unit": "%"}, {"measurement": "solubility", "setting": "[3]; in diisopropyl sebacate", "result": 41, "unit": "%"}, {"measurement": "solubility", "setting": "[3]; in hydrogenated polyisobutene", "result": "<1", "unit": "%"}, {"measurement": "solubility", "setting": "[3]; in mineral oil", "result": "<1", "unit": "%"}, {"measurement": "solubility", "setting": "[3]; in octyldodecanol", "result": 2.5, "unit": "%"}, {"measurement": "solubility", "setting": "[3]; in phenethyl benzoate", "result": 57, "unit": "%"}, {"measurement": "solubility", "setting": "[3]; in propylene glycol dicaprylate/dicaprate", "result": 22, "unit": "%"}, {"measurement": "solubility", "setting": "[3]; in tributyl citrate", "result": 29.4, "unit": "%"}, {"measurement": "solubility", "setting": "[3]; in triethyl citrate", "result": 29, "unit": "%"}, {"measurement": "absorption maximum", "setting": "[1]", "result": 354, "unit": "nm"}]}, {"smiles": "C[Si]1(C)O[Si](C)(C)O[Si](C)(C)O[Si](C)(C)O[Si](C)(C)O1", "note": "[cyclopentasiloxane]", "values": [{"measurement": "polarity index", "setting": "[2]", "result": 32, "unit": "mN/m"}]}]}
